The results in this text go back to US20160195530A1, “METHOD FOR ANALYSIS OF NKT CELL FUNCTION” (RIKEN, priority 2005, published 2016).

The subject of assay [1] is NKT cells in peripheral blood. As to the kind of experiment: ELISPOT assay of IFN-γ-producing cells with α-GalCer-loaded mature DCs (autologous, allogeneic, heterologous). The class given is cell-based, human. Particulars: α-GalCer 100 ng/ml. The source says:
In order to study whether activation of NKT cells in peripheral blood varies by DCs of different derivation, NKT cell activation in an autologous, allogeneic or heterologous system was studied by an ELISPOT assay with IFN-γ productivity as an index.
Human DCs were obtained by purifying CD14% monocytes with magnetic beads (Miltenyi Biotec Inc. Auburn, Calif.) and cultivating them for 7 days in the presence of 500 U/ml recombinant human IL-4 and 1,000 U/ml recombinant human GM-CSF. α-GalCer (100 ng/ml) or the same amount of vehicle (DMSO, Sigma) was loaded onto DCs at the 5th day, given maturation stimuli (10 ng/ml IL-1β, 10 ng/ml TNFα, and 1 μg/ml PGE2) at the 6th day, and recovered at the 7th day.
Bone marrow precursor cells were grown into DCs induced from mouse bone marrow in 5% FCS-containing RPMI-1640 using mouse GM-CSF. At the 6th day, α-GalCer (100 ng/ml) was added to immature bone marrow DCs, and cultivation was performed for 40 hr. For maturation of DCs, 100 ng/ml LPS was added at the 7th day, and cultivation was performed for 16 hr. Matured α-GalCer-pulsed DCs were recovered at the 8th day.
For detection of IFN-γ-secreting cells, 96-well filtration plates (Millipore, Bedford, Mass.) were coated with mouse anti-human IFN-γ (10 μg/ml, Mabtech, Sweden). PBMCs (1×10^6) were incubated in RPMI containing 5% human AB serum or 10% calf serum (complete medium or CM; GIBCO) in either presence or absence of α-GalCer (100 ng/ml). PMA (10 μg/ml) and ionomycin were used as positive controls. […] Spot-forming cells (SFC) were quantified with a microscope. When the reactivity was not less than 10 SFC/well and not less than twice the background (without αGalCer), the assay was scored as positive. In order to compare naive NKT cell activation ability of different APCs (autologous, allogeneic and heterologous DC) in cultures, Mφ-depleted cells (1×10^6/well) were cultivated with […] α-GalCer or vehicle-loaded APCs (1×10^5/well) in CM for 16 hr. α-GalCer-dependent IFN-γ-producing cells were measured by an ELISPOT assay.

A further assay has as its system human NKT cells. As to the kind of experiment: IFN-γ ELISA after cocultivation of isolated human NKT cells with α-GalCer-pulsed autologous or heterologous DCs. The class given is cell-based. Particulars: α-GalCer-pulsed heterologous (mouse) DCs versus autologous DCs. The method, then:
In order to clarify that a human NKT cell can be specifically activated by a heterologous DC, human NKT cells were isolated, cocultivated with α-GalCer-pulsed autologous or heterologous DCs, after which the culture supernatants were collected, and cytokine production was measured by the ELISA method.
After growth of the NKT cell with α-GalCer and IL-2, the cells were sorted using FACS Vantage with anti-invariant NKT antibodies, and cocultivated with α-GalCer-pulsed heterologous or autologous DCs, after which IFN-γ was quantified by the ELISA method.
A general note: An ELISA detects its analyte on a solid surface through an enzyme-linked reagent.

A further assay concerns NKT cell line. Put plainly: Antigen-specific growth of NKT cell line cocultivated with heterologous DCs. In kind it is cell-based, human. Particulars: heterologous DCs in presence of antigen, 10 days, serially diluted NKT cell line mixed with NKT cell-removed PBMCs. The method, then:
Mature DCs were stimulated for maturation, as well as pulsed using α-GalCer (100 ng/ml) for 48 hr in the 5th-7th days of the cultivation. 1×10^4 DCs pulsed with α-GalCer were added to the each well of 1×10^5 Mφ-depleted PBMCs in the presence of recombinant IL-2 (100 U/ml). 10-14 Days later, Va24^+ NKT cells were stained with FITC-labeled anti-Vα24 mAb, and selected using anti-FITC magnetic beads. Va24^+ NKT cells were maintained as a cell line in CM in the presence of 100 U/ml IL-2, and restimulated by PBMCs that had been irradiated in the presence of α-GalCer.
After serial dilution of the NKT cell line that was prepared by the method described in Example 4, the diluted solutions were mixed with NKT cell-removed PBMCs, cocultivated with heterologous DCs in the presence of an antigen (α-GalCel), and the growth rates were calculated 10 days later.

For assay [2], the system named is NKT cell contained in peripheral blood of a healthy subject. Put plainly: Cocultivation of Mφ-depleted PBMC with α-GalCer-pulsed mature mouse DC, flow cytometry and intracellular staining. The class given is cell-based, human. Particulars: healthy subjects; α-GalCer-pulsed mature mouse DCs, IL-2 100 U/ml, 9 days. The method, then: At first, mouse DCs were induced from mouse bone marrow cells. Mouse bone marrow cells were cultivated in 5% FCS-containing RPMI-1640 in the presence of mouse GM-CSF under 5% CO2 at 37° C. for 5 days.
Subsequently, immature mouse DCs were maturated. To the culture obtained as mentioned above (containing immature mouse DCs), α-GalCer (100 ng/ml) was added at the 6th day, and the culture was cultivated for 40 hr. For an acieration of the maturation, 100 ng/ml LPS was added at the 7th day, and the culture was cultivated for 16 hr. Thus obtained α-GalCer-pulsed mature mouse DCs were recovered at the 8th day.
PBMCs were obtained by blood drawing from healthy subjects, and Mφ-depleted PBMCs were obtained by removing macrophages (Mφ) using an anti-CD14 antibody (simultaneously using a CD11c antibody as necessary) and magnetic beads.
α-GalCer-pulsed mature mouse DCs (5×10^4 cells/ml) obtained by the above-mentioned (1) and Mφ-depleted PBMCs (5×10^5 cells/ml) obtained by the above-mentioned (2) were cultivated in 10% FCS-containing RPMI-1640 in the presence of recombinant human IL-2 (100 U/ml) under 5% CO2 at 37° C. for 9 days.
After cultivation in accordance with the protocol of the above-mentioned (1)-(3), the number of NKT cells and the frequency of NKT cells having an cytokine production ability were measured by flow cytometry and intracellular staining. […]

Consider `CCCCCCCCCCCCCCCCCCCCCCCCCC(=O)N[C@@H](CO[C@H]1O[C@H](CO)[C@H](O)[C@H](O)[C@H]1O)[C@H](O)[C@H](O)CCCCCCCCCCCCCC` [α-GalCer, 25,35,4R-1-0(α-galactopyranosyl)-2(N-hexacosanoylamino)-1,3,4-octadecanetriol], for which the “α-GalCer-dependent NKT cell activation (IFN-γ productivity, ELISPOT)” value is given as “activation of NKT cell was confirmed” in assay [1] (high frequency NKT cell-containing group (% NKT>0.05%), autologous and heterologous DCs); “NKT cell activation was not confirmed” in assay [1] (low frequency NKT cell-containing group (% NKT<0.01%)); “activation of NKT cell was confirmed in an α-GalCer dependent manner, but the production amount was found to be decreased” in assay [1] (middle frequency NKT cell-containing group (0.01%<% NKT<0.05%)). Also, the “IFN-γ production (ELISA, culture supernatant)” value in the assay on human NKT cells is “IFN-γ production was confirmed in the heterologous system, though it was lower than in the autologous system”. In addition, the “antigen-specific growth of human NKT cells” value in the assay on NKT cell line is “antigen-specifically grown by heterologous DCs”. Besides, the “cytokine production (frequency of NKT cells having cytokine production ability, IFN-γ)” value in assay [2] was “confirmed”. Further, in assay [2], the “α-GalCer-dependent growth of human NKT cells (number of NKT cells)” value is given as “confirmed”.
